Data on one substance can be found in patent US20210130420A1, “RECOMBINANT BINDING PROTEINS TARGETING HER2 AND SERUM ALBUMIN, AND THEIR USES” (Molecular Partners AG, priority 2016, published 2021).

Assay [1] concerns HER3. Kind of assay: Phosphorylation state ELISA, BT474 cells. The class given is cell-based, human. The settings on record: 100 nM, 18 hours. A general note: In an ELISA, binding on a coated surface is turned into a signal by an enzyme label.
Assay [2] relates to mTOR. The experiment in a line: Phospho-proteome mass spectrometry of BT474 cells. The class given is cell-based, human. The settings on record: 100 nM, 18 hours. From the text: (§1) Protein #21 was expressed and purified as described in Example 1. […] Cells were then subjected to a phospho-proteome mass-spectrometry analysis as described by Britton, D., et al. (Britton, D., Zen, Y., Quaglia, A., Selzer, S., Mitra, VI., Lössner, C., Jung, S., Bohm, G., Schmid, P., Prefot, P., Hoehle, C., Koncarevic, S., Gee, J., Nicholson, R., Ward, M., Castellano, L., Stebbing, J., Zucht, H. D., Sarker, D., Heaton, N., and Pike, I., 2014. PLOS One 9 (3), e90948).

The subject of assay [3] is AKT. Kind of assay: Phospho-proteome mass spectrometry of BT474 cells. The class given is cell-based, human. The settings on record: 100 nM, 18 hours.
From the text: as §1

Assay [4] deals with RPS6KB1/S6 Kinase. The experiment in a line: Phospho-proteome mass spectrometry of BT474 cells. The class given is cell-based, human. The settings on record: 100 nM, 18 hours.
From the text: as §1

The test system of assay [5] is RAF. The experiment in a line: Phospho-proteome mass spectrometry of BT474 cells. The settings on record: 100 nM, 18 hours. The class given is cell-based, human.
From the text: as §1

Assay [6] concerns BT474 cells. The experiment in a line: Induction of apoptosis, Caspase 3/7 activation. The class given is cell-based, human. The settings on record: FIG. 7.
Experimental: Briefly, 10000 BT474 cells were seeded per well in a 96 well plate in100 μl complete medium and incubated for 24 hours. […] Caspase Glo reagent was added according to the manufactures protocol for 1 hour. Caspase 3/7 activation was monitored by measuring luciferase activity. Alternatively induction of apoptosis was determined using the Cell Death Detection [sequence] system (Roche, Switzerland). The assay was performed according to the manufactures protocol. Cell number and incubations times were similar to the Caspase Glo readout. Data were analyzed using the GraphPad prism software, plotting concentration on the x-axis against OD405/490 nm or relative light units (RLU; measured on a Tecan M-1000 reader) on the y-axis. Data were fitted using a non-linear regression fit (log(agonist) vs. response—Variable slope (four parameters)).
For assay [7], the system named is Foxo3a protein. The experiment in a line: Cellular levels of Foxo3a protein in NCI-N87 cells. The class given is cell-based. The settings on record: compared to an exposure to PBS only.
From the text: as §1
(§2) It is known to the practitioner in the art, that Akt1 phosphorylates Foxo3a, resulting in the degradation of Foxo3a and promotion of cell survival. Inhibition of Act phosphorylation leads to stabilization of Foxo3a and thus increase in Foxo3a levels. At increased levels Foxo3a can translocate to the nucleus and induce apoptosis.

Assay [8] relates to HER1/EGFR. The experiment in a line: Phosphorylation state ELISA, BT474 cells. The class given is cell-based, human. The settings on record: 100 nM, 18 hours.
The test system of assay [9] is GXA3039. Kind of assay: Gastric cancer patient derived tumor xenograft mouse model GXA3039. The class given is in vivo. The settings on record: GXA3039, FIG. 4D; Protein #21 60 mg/kg, antibodies 10 mg/kg, every three days for 6 times. The protocol:
Further, Protein #21 was expressed and purified as described in Example 1. […] All groups were dosed every three days for 6 times. Briefly, tumor fragments were obtained from xenografts in serial passage in nude mice. After removal from donor mice, tumors were cut into fragments (4-5 mm diameter) for subcutaneous implantation. Mice were randomized into groups when tumors reached a volume of approximately 100-120 mm^3. The day of randomization and treatment initiation is designated as day 0 in each experiment. Tumor growth was monitored by two-dimensional measurement with a caliper on the day of randomization and then twice weekly. Relative volumes of individual tumors (individual RTVs) for Day x were calculated by dividing the individual tumor volume on Day x (Tx) by the individual volume of the same tumor on Day 0 (TO) multiplied by 100%. Tumor inhibition for a particular day (T/C in %) was calculated from the ratio of the median RTV values of test versus control groups multiplied by 100%.
On the technique in general: Xenograft models place foreign cells or tissue in a host animal.

Assay [10] deals with AKT. Kind of assay: Phospho-site specific ELISA, BT474 cells. The class given is cell-based, human. The settings on record: 100 nM, 18 hours.
Assay [11] concerns Foxo3a protein. Kind of assay: Cellular levels of Foxo3a protein in BT474 cells. The class given is cell-based, human. The settings on record: compared to an exposure to PBS only.
From the text: as §1, §2

For Pertuzumab [reference compound], in [1], the “HER3 Pan-Phospho-Tyrosine” value is reported as 0.78 fold change to PBS. Also, the “mTOR S2448/S2454 phosphorylation” value in assay [2] is recorded as 1.09 fold change to PBS. For the same substance, in assay [3], the “AKT S124 phosphorylation” value was 1.04 fold change to PBS and the “AKT S129 phosphorylation” value is 1.16 fold change to PBS. For the same substance, in [4], the “RPS6KB1/S6Kinase S441/T444/S447 phosphorylation” value is recorded as 1.02 fold change to PBS and the “RPS6KB1/S6Kinase T444/S447 phosphorylation” value is listed as 1.04 fold change to PBS. Besides, in [5], the “RAF S642 phosphorylation” value is 1.2 fold change to PBS and the “RAF T631/T638/T640/T641/S642 phosphorylation” value is 1.01 fold change to PBS. For the same substance, in assay [6], the “induction of apoptosis in BT474 cells” value is on record as “did not induce apoptosis”. In addition, the “increase of cellular levels of Foxo3a protein” value in assay [7] turned out to be 1.25 fold. In addition, the “HER1/EGFR Pan-Phospho-Tyrosine” value in [8] is given as 0.68 fold change to PBS. Besides, the “inhibition of tumor growth, second experiment” value in assay [9] is listed as “significantly less efficacious”. In assay [10], the “AKT S473 phosphorylation” value is 0.73 fold change to PBS. Moreover, the “increase of cellular levels of Foxo3a protein” value in [11] is recorded as 1.21 fold.
